Assay results as given in patent US20100029615A1, “BENZIMIDAZOLE DERIVATIVES” (priority 2006, published 2010).
Structures can show the parent of a compound that is named as a salt.

Target: T1, SMO (Mus musculus, UniProt P56726)
T1 construct: endogenous in cells; host or cells: C3H10T1/2 (ATCC #CCL-226)
Experiment: Smoothened (SMO)/Sonic Hedgehog (SHh) Transient Transcriptional Activation Assay (Gli-luciferase reporter in C3H10T1/2 cells)
Assay type: cell-based, murine
Conditions: 2 uM test compound, SHh 250 ng/ml, 20 hrs
In short: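 C3H10T1/2 cells transiently transfected with a 10× murine Gli-responsive firefly luciferase reporter plus pEGFP, serum-starved 20 h in 0.5% calf serum, then treated with compounds (2 uM–2 nM final) and 250 ng/ml recombinant human SHh for 20 h at 37 °C. Read-out: Dual-Glo luminescence.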

T1 sequence (P56726 33-793): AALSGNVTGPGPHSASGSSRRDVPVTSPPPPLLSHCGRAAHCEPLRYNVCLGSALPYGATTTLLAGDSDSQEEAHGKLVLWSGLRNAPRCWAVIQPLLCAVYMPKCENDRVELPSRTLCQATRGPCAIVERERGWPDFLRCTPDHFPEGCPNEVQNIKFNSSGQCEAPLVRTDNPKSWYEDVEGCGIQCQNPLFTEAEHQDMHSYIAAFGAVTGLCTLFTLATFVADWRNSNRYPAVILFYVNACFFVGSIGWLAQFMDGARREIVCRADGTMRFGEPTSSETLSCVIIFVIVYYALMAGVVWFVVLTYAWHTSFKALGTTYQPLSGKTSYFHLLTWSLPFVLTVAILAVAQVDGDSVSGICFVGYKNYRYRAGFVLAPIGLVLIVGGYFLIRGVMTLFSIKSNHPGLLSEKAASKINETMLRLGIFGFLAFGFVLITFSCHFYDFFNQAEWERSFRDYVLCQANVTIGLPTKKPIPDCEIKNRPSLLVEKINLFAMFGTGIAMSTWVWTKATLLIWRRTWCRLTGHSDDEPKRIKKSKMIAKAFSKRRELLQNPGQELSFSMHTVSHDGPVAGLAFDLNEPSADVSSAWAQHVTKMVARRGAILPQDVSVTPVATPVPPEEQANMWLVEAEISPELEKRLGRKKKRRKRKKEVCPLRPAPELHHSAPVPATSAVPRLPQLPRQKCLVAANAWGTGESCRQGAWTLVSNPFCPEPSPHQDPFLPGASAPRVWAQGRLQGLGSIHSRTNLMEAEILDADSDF

Row | SMO % inhibition at 2 uM [%] | Compound
1 | 93 | N-(3-(6-(2-Cyanopropan-2-yl)-1-methyl-1H-benzo[d]imidazol-2-yl)cyclohexyl)-2,3-dihydrobenzo[b)[1,4]dioxine-6-carboxamide and N-(3-(5-(2-cyanopropan-2-yl)-1-methyl-1H-benzo[d]imidazol-2-yl)cyclohexyl)-2,3-dihydrobenzo[b][1,4]dioxine-6-carboxamide [Example 36]
2 | 96 | N-(3-(6-((Dimethylamino)methyl]-1-methyl-1H-benzo[d]imidazol-2-yl)cyclohexyl)-2,3-dihydrobenzo[b][1,4]dioxine-6-carboxamide and N-(3-(5-((Dimethylamino)methyl]-1-methyl-1H-benzo[d]imidazol-2-yl)cyclohexyl)-2,3-dihydrobenzo[b][1,4]dioxine-6-carboxamide [Example 34]

Same assay, conditions: 2 μM test compound, SHh 250 ng/ml, 20 hrs

Row | SMO CELL % INHIBITION @ 2 μM [%] | Compound
3 | 110 | O=C(NC1CCCC(c2nc3ccccc3[nH]2)C1)c1ccc2cc[nH]c2c1 (stereo not drawn) [Example 141, N-[3-(1H-benzimidazol-2-yl)cyclohexyl]-1H-indole-6-carboxamide triflouroacetate]

Same assay, conditions: C3H 10T1/2, 2 uM test compound, SHh 250 ng/ml, 20 hrs, read-out: SMO % inhibition at 2 uM

Row | inhibition at 2 µM [%] | Compound
4 | 86 | COc1cc(OC)cc(C(=O)NC2CCCC(c3nc4ccc(NS(C)(=O)=O)cc4[nH]3)C2)c1 (stereo not drawn) [Example 11, 3,5-Dimethoxy-N-(3-(5-(methylsulfonamido)-1H-benzo[d]imidazol-2-yl)cyclohexyl)benzamide]
5 | 99 | COc1cc(OC)cc(C(=O)NC2CCCC(c3nc4cc(Cl)ccc4[nH]3)C2)c1 (stereo not drawn) [Example 25, N-(3-(6-Chloro-1H-benzo[d]imidazol-2-yl)cyclohexyl]-3,5-dimethoxybenzamide]
6 | 107 | CN(C)Cc1ccc2nc([C@H]3CCC[C@@H](NC(=O)c4ccc5c(c4)OCCO5)C3)[nH]c2c1 [Example 44, N-((1R,3S)-3-(5-((Dimethylamino)methyl)-1H-benzo[d]imidazol-2-yl)cyclohexyl)-2,3-dihydrobenzo[b][1,4]dioxine-6-carboxamide]
7 | 107 | O=C(NC1CCCC(c2nc3ccccc3[nH]2)C1)c1ccc2c(c1)OCCO2 (stereo not drawn) [Example 1, N-(3-(1H-benzo[d]midazol-2-yl)cyclohexyl)-2,3-dihydrobenzo[b][1,4]dioxine-6-carboxamide]
8 | 87 | COc1cc(OC)cc(C(=O)NC2CCCC(c3nc4cc(NC(C)=O)ccc4[nH]3)C2)c1 (stereo not drawn) [Example 9, N-(3-(5-Acetamido-1H-benzo[d]imidazol-2-yl)cyclohexyl)-3,5-dimethoxybenzamide]
9 | 87 | COCCNc1ccc(C(=O)N[C@@H]2CCC[C@H](c3nc4ccccc4[nH]3)C2)cn1 [Example 41, N-((1R,3S)-3-(1H-Benzo-[d]imidazol-2-yl)cyclohexyl)-6-(2-methoxyethylamino)nicotinamide]

Same assay, conditions: C3H 10T1/2, 2 μM test compound, SHh 250 ng/ml, 20 hrs, read-out: SMO CELL % INHIBITION @ 2 μM

Row | inhibition at 2 µM [%] | Compound
10 | 105 | O=C(N[C@@H]1CCC[C@H](c2nc3ccc(C(F)(F)F)cc3[nH]2)C1)c1ccc2c(c1)OCCO2 [Example 223, N-((1R,3S)-3-[6-(trifluoromethyl)-1H-benzimidazol-2-yl]cyclohexyl]-2,3-dihydro-1,4-benzodioxine-6-carboxamide HCl]
11 | 52 | COc1cc(C(=O)N[C@@H]2CCC[C@H](c3nc4ccccc4[nH]3)C2)cc2c1OCO2 [Example 222, N-[(1R,3S)-3-(1H-benzimidazol-2-yl)cyclohexyl]-7-methoxy-1,3-benzodioxole-5-carboxamide triflouroacetate]
12 | 80 | COc1cccc2[nH]c(C(=O)N[C@@H]3CCC[C@H](c4nc5ccccc5[nH]4)C3)cc12 [Example 208, N-[(1R,3S)-3-(1H-benzimidazol-2-yl)cyclohexyl]-4-methoxy-1H-indole-2-carboxamide triflouroacetate]
13 | 102 | O=C(N[C@@H]1CCCC(c2nc3ccccc3[nH]2)C1)c1ccc2c(c1)OC(F)(F)O2 (stereo partly drawn) [Example 251, N-((1R,3S)-3-(1H-benzo[d]imidaz-ol-2-yl)cyclohexyl)-2,2-difluorobenzo[d] [1,3]dioxole-5-carboxamide]
14 | 108 | O=C(Nc1ccc(-c2ccccc2)s1)N[C@@H]1CCC[C@H](c2nc3ccccc3[nH]2)C1 [Example 229, 1-[(1R,3S)-3-(1H-benzimidazol-2-yl)cyclohexyl]-3-(5-phenyl-2-thienyl)urea]
15 | 78.8 | N#Cc1ccc(NC(=O)NC23CCCC(c4nc5cc(C(F)(F)F)ccc5[nH]4)(C2)C3)cc1 [Example 261, 1-(4-cyanophenyl)-3-{5-[5-(trifluoromethyl)-1H-benzimidazol-2-yl]bicyclo[3.1.1]hept-1-yl}urea]
16 | 105 | O=C(NC12CCCC(c3nc4cc(C(F)(F)F)ccc4[nH]3)(C1)C2)c1ccc(C(=O)C(F)(F)F)cc1 [Example 274, 4-(trifluoroacetyl)-N-{5-[5-(trifluoromethyl)-1H-benzimidazol-2-yl]bicyclo[3.1.1]hept-1-yl}benzamide]
17 | 94 | Cn1c(C23CCCC(NC(=O)c4ccc5c(c4)OC(F)(F)O5)(C2)C3)nc2ccccc21 [Example 250, 2,2-difluoro-N-(5-(1-methyl-1H-benzo[d]imidaz-ol-2-yl)bicyclo[3.1.1]heptan-1-yl)benzo[d][1,3] dioxole-5-carboxamide]
18 | 84.7 | O=C(NC12CCCC(c3nc4cc(Cl)ccc4[nH]3)(C1)C2)c1cc2c(cn1)OCCO2 [Example 271, N-[5-(5-chloro-1H-benzimidazol-2-yl)bicyclo[3.1.1]hept-1-yl]-2,3-dihydro[1,4]di-oxino[2,3-c]pyridine-7-carboxamide]
19 | 91 | COc1ccc2[nH]c([C@H]3CCC[C@H](NC(=O)c4ccc5c(c4)OCCO5)C3)nc2c1 [Example 254, N-(3-(5-methoxy-1H-benzo[d]imidaz-ol-2-yl)cyclohexyl)-2,3-dihydrobenzo[b] [1,4]dioxine-6-carboxamide HCl]

Second part, the compound before the results:

Row | Compound | inhibition at 2 µM [%]
20 | O=C(N[C@@H]1CCC[C@H](c2nc3ccccc3[nH]2)C1)c1cnc(O)c(Cl)c1 [Example 169, N-[(1R,3S)-3-(1H-benzimidazol-2-yl)cyclohexyl]-5-chloro-6-hydroxynicotin-amide HCl] | 93
21 | O=C(N[C@@H]1CCC[C@H](c2nc3ccccc3[nH]2)C1)c1cc2ccccc2s1 [Example 182, N-[(1R,3S)-3-(1H-benzimidazol-2-yl)cyclohexyl]-1-benzothiophene-2-carboxamide triflouroacetate] | 106
22 | O=C(Cc1ccc(Cl)s1)NC1CCCC(c2nc3ccccc3[nH]2)C1 (stereo not drawn) [Example 131, N-[3-(1H-benzimidazol-2-yl)cyclohexyl]-2-(5-chloro-2-thienyl)acetamide triflouroacetate] | 101
23 | O=C(NC1CCCC(c2nc3ccc(Cl)cc3[nH]2)C1)c1ccc2c(c1)OCCO2 (stereo not drawn) [Example 85, N-[3-(6-chloro-1H-benzimidazol-2-yl)cyclohexyl]-2,3-dihydro-1,4-benzodioxine-6-carboxamide HCl] | 103
24 | O=C(NC1CCCC(c2nc3ccccc3[nH]2)C1)c1ccnn1-c1ccccc1 (stereo not drawn) [Example 106, N-[3-(1H-benzimidazol-2-yl)cyclohexyl]-1-phenyl-1H-pyrazole-5-carboxamide triflouroacetate] | 76
25 | O=C(N[C@@H]1CCC[C@H](c2nc3ccccc3[nH]2)C1)c1ccc2snnc2c1 [Example 202, N-[(1R,3S)-3-(1H-benzimidazol-2-yl)cyclohexyl]-1,2,3-benzothiadiazole-5-carboxamide triflouroacetate] | 34
26 | COc1ccc2[nH]c([C@H]3CCC[C@@H](NC(=O)c4ccc5c(c4)OCCO5)C3)nc2c1 [Example 88, N-[(1R,3S)-3-(5-methoxy-1H-benzimidazol-2-yl)cyclohexyl]-2,3-dihydro-1,4-benzodioxine-6-carboxamide HCl] | 106
27 | O=C(N[C@@H]1CCC[C@H](c2nc3cc(C(F)(F)F)ccc3[nH]2)C1)c1ccc2c(c1)OCCO2 [Example 151, N-{(1R,3S)-3-[5-(trifluoromethyl)-1H-benzimidazol-2-yl]cyclohexyl}-2,3-dihydro-1,4-benzodioxine-6-carboxamide HCl] | 106
28 | O=C(N[C@@H]1CCC[C@@H](c2nc3ccccc3[nH]2)C1)c1ccc2c(c1)OCCO2 [Example 65, N-[(1R,3R)-3-(1H-benzimidazol-2-yl)cyclohexyl]-2,3-dihydro-1,4-benzodioxine-6-carboxamide HCl] | 96
29 | O=C(Cc1nc2cc(Cl)ccc2[nH]1)NC1CCCC(c2nc3ccccc3[nH]2)C1 (stereo not drawn) [Example 144, N-[3-(1H-benzimidazol-2-yl)cyclohexyl]-2-(5-chloro-1H-benzimidazol-2-yl)acetamide HCl] | 105
30 | Cc1cccc(=O)n1CC(=O)NC1CCCC(c2nc3ccccc3[nH]2)C1 (stereo not drawn) [Example 111, N-[3-(1H-benzimidazol-2-yl)cyclohexyl]-2-(6-methyl-2-oxopyridin-1(2H)-yl)acetamide triflouroacetate] | 103
31 | O=C(N[C@@H]1CCC[C@H](c2nc3ccccc3[nH]2)C1)c1ccc2nsnc2c1 [Example 206, N-[(1R,3S)-3-(1H-benzimidazol-2-yl)cyclohexyl]-2,1,3-benzothiadiazole-5-carboxamide triflouroacetate] | 56
32 | Cc1nn(C)c2sc(C(=O)N[C@@H]3CCC[C@H](c4nc5ccccc5[nH]4)C3)cc12 [Example 204, N-[(1R,3S)-3-(1H-benzimidazol-2-yl)cyclohexyl]-1,3-dimethyl-1H-thieno[2,3-c]pyrazole-5-carboxamide triflouroacetate] | 103
33 | O=C(NC1CCCC(c2nc3ccccc3[nH]2)C1)C1CCCO1 (stereo not drawn) [Example 121, N-[3-(1H-benzimidazol-2-yl)cyclohexyl] tetrahydrofuran-2-carboxamide triflouroacetate] | 94
